By solubility is commonly meant the concentration that dissolves in the medium under given conditions. Read a high solubility as much dissolved substance. As a reminder, the IC50 is the point on the concentration scale where inhibition reaches its midpoint.

Series [1] is described as follows: Aqueous solubility in PBS pH 7.4. In kind it is physicochemical. The following applies: phosphate buffered saline, aqueous buffer, kinetic from dmso stock, PBS pH 7.4, room temperature. As for the experimental part:
The following procedure was used to determine the aqueous solubility of a test compound in phosphate buffered saline (PBS—NaCl 137 mM, KCl 2.7 mM, Na2HPO4 8.1 mM, KH2PO4 1.5 mM, pH 7.4) in 96-well plate format by HPLC-UV/VIS analysis. The test compound was prepared at 200 μM in PBS from a 10 mM DMSO stock solution. The final DMSO concentration was 2%. The PBS buffer samples were mixed thoroughly followed by incubation at room temperature for 24 h. At the end of the incubation, the PBS buffer samples were centrifuged and supernatants analyzed by HPLC. The aqueous solubility (μM) of the test compound in PBS was determined by comparing the peak area of the principal peak in the calibration standard (200 μM) with the peak area of the corresponding peak in each of the PBS samples. The range of the assay was approximately 0.5 μM to 200 μM. The reference compounds used in each assay were metoprolol, rifampicin, ketoconazole, phenytoin, haloperidol, simvastatin, diethylstilbestrol, and tamoxifen ranking from fully soluble (200 μM) to poorly soluble (<1 μM).

Series [2] in a line: Metabolic stability in dog hepatocytes. The following applies: pooled cryopreserved hepatocytes; beagle dog hepatocytes, 2 μM compound, 500,000 cells/mL, 37° C.; read-out: Dog Hepatocyte Stability (T½: min). In kind it is in vitro ADME. As for the experimental part: The following procedure was used to determine the stability of test compounds in beagle dog hepatocytes in a 96-well plate format. The test compounds, including the controls, imipramine and 7-ethoxycoumarin, were dissolved at 10 mM in DMSO, followed by further 5-fold dilution with DMSO to 2 mM. Pooled cryopreserved beagle dog hepatocytes were thawed and transferred into complete medium. Cells were gently centrifuged (700 rpm for 5 min) and the pellet rinsed with KHB (Krebs Henseleit buffer). Cells were resuspended, counted using Trypan blue, and adjusted to 1 million cells/mL in KHB buffer. The 2 mM compound stock solutions were diluted 10-fold with acetonitrile, followed by a further 50-fold dilution with KHB buffer. 200 μL of these compound solutions were transferred to 96-well polypropylene assay plates and an equal volume of the hepatocyte solution was added and mixed to initiate the reaction (final assay concentrations were 2 μM compound and 500,000 cells/mL). Assay plates were incubated at 37° C. in 5% CO2 with gentle agitation. 50 μL aliquots were removed at multiple time points out to 180 minutes and quenched with 6 volumes of cold acetonitrile (containing 250 ng/mL of carbutamide and chrysin as internal standards) to terminate the reaction and precipitate protein. Quenched samples were maintained on ice. The quenched samples were centrifuged at 2000×g (3100 rpm) for 10 minutes at 4° C. 50 μL aliquots of the supernatants were removed and diluted with 100 μL Milli-Q water to reduce the % organic content prior to bioanalysis by LC-MS/MS. Peak areas corresponding to the test compound were recorded. The compound remaining was calculated by comparing the peak area at each time point to time zero. Data were analyzed and results were calculated using Microsoft Excel 2010.

The target of a further series is human Factor XIa (Homo sapiens, UniProt P03951). In words: Factor XIa enzyme inhibition assay (dose response, fluorogenic AMC substrate). The class given is biochemical. The arrangement: Enzyme: Factor XIa. The following applies: purified enzyme; substrate 50 μM, enzyme 0.25 nM; read-out: hFXIa IC50. The essentials:
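Fluorogenic assay in 20 mM Hepes pH 7.4, 150 mM NaCl, 0.02% Tween 20 with 0.25 nM enzyme and 50 μM Glp-Pro-Arg-AMC (final). Fluorescence read every minute for 30 min at 30 °C after serial two-fold compound dilution; IC50 from four-parameter Hill fit of dose-response curves.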

Values after ≈ are worked out from the molar mass of the structure shown.

Chain of human Factor XIa (P03951 388-625 limits assumed): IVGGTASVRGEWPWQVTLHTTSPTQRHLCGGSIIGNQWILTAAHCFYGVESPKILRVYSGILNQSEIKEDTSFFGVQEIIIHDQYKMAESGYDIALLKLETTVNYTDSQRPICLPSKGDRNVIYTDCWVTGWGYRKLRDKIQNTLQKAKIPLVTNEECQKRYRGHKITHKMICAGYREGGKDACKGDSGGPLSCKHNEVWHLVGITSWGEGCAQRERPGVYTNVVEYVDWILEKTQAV
Chain of human Factor XIa (P03951 19-387 partner limits assumed): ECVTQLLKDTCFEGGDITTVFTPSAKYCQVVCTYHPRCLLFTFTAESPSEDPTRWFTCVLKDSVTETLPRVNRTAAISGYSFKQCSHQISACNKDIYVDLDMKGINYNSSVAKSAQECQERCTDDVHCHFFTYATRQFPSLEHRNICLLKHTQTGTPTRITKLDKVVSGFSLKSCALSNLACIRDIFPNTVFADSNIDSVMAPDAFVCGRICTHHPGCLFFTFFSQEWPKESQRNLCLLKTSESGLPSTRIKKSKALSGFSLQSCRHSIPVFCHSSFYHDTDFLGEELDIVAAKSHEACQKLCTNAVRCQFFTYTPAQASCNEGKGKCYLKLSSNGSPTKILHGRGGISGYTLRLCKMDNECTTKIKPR

In series [1], `CC[C@@H](NC(=O)N1C(=O)[C@H](Cc2ccnc(N)c2)[C@H]1C(=O)N(C)c1ccncc1)c1ccccc1Cl` [Compound 95] displayed a solubility at 24 h of more than 100 µM. Besides, in series [2], the half-life at 2 μM was 2.02 to 4 h. For the same molecule, the IC50 on human Factor XIa was less than 10 nM.

Consider `CC[C@H](NC(=O)N1C(=O)[C@H](Cc2ccnc(N)c2)[C@H]1C(=O)N(C)c1ccncc1)c1ccccc1C` [Compound 97], for which the solubility at 24 h in series [1] was more than 100 µM. In addition, the half-life at 2 μM in series [2] lay in the range of 2.02 to 4 h. The IC50 at human Factor XIa is less than 10 nM.

`CC[C@@H](NC(=O)N1C(=O)[C@H](Cc2ccnc(N)c2)[C@H]1C(=O)N(C)c1ccncc1)c1cccc(C#N)c1` [Compound 99] had a solubility at 24 h in series [1] of more than 100 µM. Also, the half-life at 2 μM in series [2] was more than 4 h. Besides, the IC50 at human Factor XIa is less than 10 nM.

As to `CC[C@@H](NC(=O)N1C(=O)[C@H](Cc2ccnc(N)c2)[C@H]1C(=O)N(C)c1ccncc1)c1cccc(OC)c1` [Compound 100], in series [1], the solubility at 24 h was more than 100 µM. Moreover, the half-life at 2 μM in series [2] is more than 4 h. In addition, the IC50 at human Factor XIa was less than 10 nM.

On to `CC[C@@H](NC(=O)N1C(=O)[C@H](Cc2cc(C)nc(N)c2)[C@H]1C(=O)N(C)c1ccccc1)c1cccc(Cl)c1` [Compound 120], for which the solubility at 24 h in series [1] fell in the range of 10 to 100 µM (≈ 5.2 to 52 µg/mL). Besides, in series [2], the half-life at 2 μM was in the range of 2.02 to 4 h. Moreover, at human Factor XIa, the IC50 was less than 10 nM.

The molecule `CC[C@@H](NC(=O)N1C(=O)[C@H](Cc2ccnc(N)c2)[C@H]1C(=O)N(C)c1ncccn1)c1cccc(Cl)c1` [Compound 121] registered a solubility at 24 h in series [1] of more than 100 µM. Also, the half-life at 2 μM in series [2] was less than 1 h. For the same molecule, the IC50 on human Factor XIa was less than 10 nM.

In series [1], `CC[C@@H](NC(=O)N1C(=O)[C@H](Cc2ccnc(NC(=O)OC(C)(C)C)c2)[C@H]1C(=O)N(C)c1ccncc1)c1cccc(Cl)c1` [Compound 127] came in with a solubility at 24 h of 10 to 100 µM (≈ 6.07 to 60.7 µg/mL). The half-life at 2 μM in series [2] is less than 1 h. Also, at human Factor XIa, the IC50 was 10 to 100 nM.
